Reference: article PMC12705613 (Frontiers in Microbiology, 2025)

Tests used:
in vivo = conditions: rat, in vivo, po, 20 mg/kg; for AUC(0-inf): AUC0-∞; for MRT last: MRT0-t; for MRT inf: MRT 0-∞; for half-life: t1/2z
Experimental: The pharmacokinetic study was described as follows.
The UHPLC-TQ-MS analysis was conducted on an LC-30 AD ultra high-performance liquid chromatograph (Shimadzu, Japan) connected to an AB 4500 (AB Sciex, United States) Triple Quadrupole Mass Spectrometer with an ESI source. Chromatographic separation was achieved on an Acquity UHPLC HSS T3 column (100 × 2.1 mm, 1.8 μm) at 40 °C, and the eluent was aqueous formic acid (100:0.1, v/v) (A) and acetonitrile with formic acid (100:0.1, v/v) (B) at a flow rate of 0.3 mL min^−1. Gradient elution differs in the calculation of residual content and pharmacokinetic experiments. MRM mode was employed. Data processing was performed using Analyst Software (AB Sciex). The UHPLC-TQ-MS method validation was conducted in terms of selectivity, linearity, carryover, accuracy and precision, matrix effect, extraction recovery, dilution integrity, and stability under various conditions, which was performed in line with the FDA guidelines for bioanalytical assays. More details were described in the Supplementary material method.
The comparisons of the relative abundance of the genera between different groups were performed using the Wilcoxon rank-sum test. Comparisons between WKY and SHRs before and after CRO treatment were conducted using either a t-test or one-way ANOVA, with p values < 0.05 considered statistically significant. […] Graphs were created using GraphPad Prism 8.0 software.
For the determination of drug remaining contents in the supernatant, the gradient elution was as follows: 0.1–0.5 min at 45% B; 0.5–1.0 min at 45–65% B; 1.5–4.0 min at 65–85% B; 4.0–4.5 min at 85% B; 4.5–4.6 min at 85%–45% B; 4.6–5.0 min at 45% B. For pharmacokinetics, the gradient elution was performed as follows: 0–0.5 min at 30% B; 0.5–1.5 min at 30–45% B; 1.5–5.0 min at 45–60% B; 5.0–7.0 min at 60–80% B; 7.0–8.0 min at 80% B; 8.1–10.0 min at 30% B. The injection volume was 5 μ L. The multiple reaction monitoring (MRM) mode was used to detect analytes and IS in the positive ion mode. The mass spectrometry parameters were set as follows: ion spray voltage was 5500 V, turbo spray temperature (TEM) of 550℃; nebulizer gas (gas 1) of 50 psi; heater gas (gas 2) of 50 psi and curtain gas of 40 psi. Nitrogen was kept as the nebulizer and auxiliary gas.

[1] = after administration; ref Zhou et al., 2009; Mukai et al., 2015; cited from earlier work
human intestinal flora = test system: human intestinal flora; parameters: method as in Zimmermann et al., 2019; conditions: in vitro; fecal samples from healthy individuals; ref Zimmermann et al., 2019; cited from earlier work

| SMILES | Decrease of AUC0-∞ (in vivo; SHR compared with WKY) [%] | MRT0-t (in vivo; SHR) [h] | MRT 0-∞ (in vivo; SHR) [h] | t1/2z (in vivo; SHR) [h] | Cmax (in vivo; SHR, Cmax) [ng/mL] | MRT last (in vivo; SHR) [h] | MRT inf (in vivo; SHR) [h] | Tmax (in vivo; SHR, Tmax) [h] | half-life (in vivo; SHR) [h] | Cmax (in vivo; WKY) [ng/mL] | MRT0-t (in vivo; WKY) [h] | AUC(0-t) (in vivo; WKY, AUC0-t) [ng·h/mL] | AUC(0-inf) (in vivo; WKY) [ng·h/mL] | MRT last (in vivo; WKY) [h] | also measured |
| --- | --- | --- | --- | --- | --- | --- | --- | --- | --- | --- | --- | --- | --- | --- | --- |
| CCCCc1nc(Cl)c(C(=O)O)n1Cc1ccc(-c2ccccc2-c2nnn[nH]2)cc1 [E-3174] | 72.42 | 11.21 ± 0.73 | 21.63 ± 10.07 | 9.10 ± 8.85 | 1800 ± 1110 | 8.84 ± 1.59 | 15.1 ± 8.39 | 4.75 ± 2.56 | 10.1 ± 5.59 | 6985.09 ± 6023.88 | 12.64 ± 1.23 | 65000 ± 44100 | 78300 ± 41100 | 8.39 ± 2 | Tmax (in vivo; SHR): 7.00 ± 1.67 h; AUC(0-t) (in vivo; SHR, AUC0-t): 17600 ± 4270 ng·h/mL; AUC(0-inf) (in vivo; SHR): 21600 ± 3070 ng·h/mL |
| CCCCc1nc(Cl)c(CO)n1Cc1ccc(-c2ccccc2-c2nn[nH]n2)cc1 [Losartan, Losartan potassium] | 50.24 | 7.64 ± 1.16 | 12.00 ± 2.70 | 6.04 ± 2.28 | 4000 ± 1770 | 6.79 ± 1.38 | 9.65 ± 3.34 | 0.25 | 5.91 ± 3.72 | 9331.32 ± 7242.24 | 9.99 ± 0.84 | 29900 ± 15400 | 39200 ± 20400 | 5.89 ± 2.1 | Decline of AUC0-t (in vivo; SHR compared with WKY): 39.88%; AUC0-∞ (in vivo; SHR): 19483.83 ± 4098.26 ng·h/mL; AUC(0-t) (in vivo; SHR): 18002.60 ± 2806.38 ng·h/mL; MRT 0-∞ (in vivo; WKY): 23.65 ± 16.03 h; t1/2z (in vivo; WKY): 13.67 ± 13.15 h; MRT inf (in vivo; WKY): 16.7 ± 19.2 h; half-life (in vivo; WKY): 13.6 ± 14.3 h; Excreted in feces [1]: ~60%; Excreted in urine [1]: approximately 35%; Degradation on exposure to fecal samples (human intestinal flora): approximately 20% |
